Results from patent US11629174B2, “Cryptic metabolites and method for activating silent biosynthetic gene clusters in actinomycete bacteria” (The Trustees of Princeton University, priority 2017, dated 2023).

Tests used:
[1] = test system: Gene cluster 4286; assay: HiTES in S. erythraea, gene cluster 4286; assay type: cell-based; details: FIG. 13
[2] = test system: Gene cluster 4477; assay: HiTES in S. erythraea, gene cluster 4477; assay type: cell-based; details: FIG. 14
[3] = test system: Gene cluster 4143; assay: HiTES in S. erythraea, gene cluster 4143; assay type: cell-based; details: FIG. 12
[4] = test system: Gene cluster 2631; assay: HiTES in S. erythraea, gene cluster 2631; assay type: cell-based; details: FIG. 10
[5] = test system: Gene cluster 2875; assay: HiTES in S. erythraea, gene cluster 2875; assay type: cell-based; details: FIG. 11
[6] = test system: S. avermitilis; assay: Growth inhibition of S. avermitilis by elicitor; assay type: cell-based; details: dose-response series in 2.5 ug/mL steps
[7] = test system: SAV3643 and SAV3665; assay: RT-qPCR of SAV3643 and SAV3665 in cluster 3648; assay type: cell-based, S. avermitilis; details: 5 ug/mL, relative to untreated samples
[8] = test system: Gene cluster 3648; assay: HiTES in S. avermitilis, gene cluster 3648; assay type: cell-based; details: FIGS. 16 and 17
[9] = test system: surA and surC; assay: RT-qPCR of surA and surC transcripts in wt S. albus; assay type: cell-based, Streptomyces albus J1074
Protocol: In the example above, the effects of these putative elicitors on the sur cluster were validated by performing a RT-qPCR with wt S. albus. Upon exposure of S. albus to each elicitor or DMSO (control), total RNA was be isolated, converted to cDNA and the surA and surC transcripts quantified by qPCR. […] To further verify the effect of 1 and 2, a dose-response assay was carried out. With both elicitors, a concentration-dependent induction of sur was observed, yielding optimal upregulation at a final concentration of ˜23 μM (etoposide) and −30 μM (ivermectin) (FIG. 4B). These concentrations induced a ˜10-fold (etoposide) and 4.5-fold (ivermectin) upregulation of surC.
All operations involving RNA utilized a dedicated RNase-free work area. To commence the experiment, seed cultures of wt S. albus J1074 were prepared by inoculating 3 ml of TSBY medium (3% (w/v) tryptic soy broth and 0.5% yeast extract) in a sterile 14 ml bacterial culture tube with freshly-prepared spores (˜10^7). The culture was incubated at 30° C. and 250 rpm in an Ecotron Shaker (ATR). After 48 hours cultivation, the cells were collected by centrifugation and subsequently diluted to a final concentration of 0.05% (w/v) in 250 ml Erlenmeyer flask containing 50 ml of R4 medium. Desired elicitors were added to final concentrations indicated in the figures (typically 1-100 μM), and the cultures were incubated at 30° C. and 250 rpm. After 48 h, 1 ml was removed from each sample and transferred to a 1.5 ml RNase-free Eppendorf tube (Ambion). Each sample was centrifuged (16,000 g, 3 min) to collect the cells, the supernatant discarded, the cells flash-frozen in liquid N2, and stored at −80° C.
RNA isolation was carried out using the Qiagen RNeasy kit following the manufacturer's instructions without modifications. Upon isolation, contaminating DNA was removed using the DNA-free kit (Ambion) according to manufacturer's instructions. Gel electrophoreses subsequently confirmed RNA integrity (FIG. S2). Finally, total RNA was converted into cDNA via the PrimeScript™ RT reagent Kit (Takara) using random hexamers as primers and 500 ng of each RNA sample as template.
Three genes (surA, surC and surR) were chosen for quantification by RT-qPCR. The primers were designed using primer-3-plus software available online. The primers were carefully chosen to give an amplicon length of 130-160 bp and a melting temperature of 60° C., though this was later optimized (see below and Table 2). The primers were chosen to vary in length between 18-22 bp, and, if possible, to contain a single G/C clamp at the 3′ end. To ensure optimal qPCR parameters, the genomic DNA of S. albus J1074 was isolated using the Wizard genomic DNA purification kit (Promega), and each amplicon was subsequently amplified using standard PCR conditions with a high-fidelity, proof-reading Q5 DNA polymerase (NEB). The PCR reactions were then separated on a 1.2% agarose gel, the amplicon excised, and gel-extracted with the Gel Extraction kit (Qiagen). The extracted DNA was used to optimize qPCR conditions. Using the amplicon template, the primer concentrations were first varied followed by the annealing/extension temperatures, which ranged from 58-68° C. in eight steps. The combination that gave the lowest quantification cycle (Cq) was used in the experiments (Table 2). The Cq was obtained with an automatic baseline determined by the CFX Manager Software (Bio-Rad). As positive controls, these standards were included in every plate that contained the experimental samples, along with no-DNA controls, in duplicates.
qPCR analysis was performed on a CFX96 Real-Time PCR Detection System (Bio-Rad) consisting of a C1000 Thermal Cycler and a CFX96 Real-Time System. The reaction was carried out in hard-shell, clear 96-well qPCR plates (Bio-Rad) and utilized the iTaq Universal SYBR Green Supermix (Bio-Rad). […]

[10] = test system: S. albus; assay: Anti-bacterial effect of elicitor on the producing strain; assay type: cell-based, Streptomyces albus J1074; details: at high concentrations
[11] = test system: sur cluster; assay: High-throughput elicitor screen (HiTES), eGFPx3 reporter strains of the sur cluster; assay type: cell-based, Streptomyces albus J1074; details: attB::Psur-eGFPx3 and surE::eGFPx3, ~33 μM, 60 h, hit threshold 2.5-fold eGFP fluorescence
Protocol: These next four steps are seen be referring to the previously described example. In the previously described example, HiTES was carried out using the two constructs seen in FIGS. 2B and 2C with a ˜500-member natural products library. Each S. albus construct was grown in a 96-well format, supplemented with the compound library, and the effect of each compound on the silent BGC determined using eGFP-derived fluorescence. Interference from naturally fluorescent compounds in the library was eliminated by subtracting the […], immediately after addition of the library members.
Referring to FIGS. 3A and 3B, results for both genetic constructs are shown. These graphs show relative expression of a neutral site reporter, attB::Psur-eGFPx3 (FIG. 3A) or targeted sur reporter, surE::eGFPx3 (FIG. 3B) as a function of exogenously-supplied small molecules. Each bar represents the level of expression of sur in the presence of a single candidate elicitor. Plus signs denote the positive control, attB::PermE-eGFPx3. Minus signs denote the negative controls, attB::Psur-eGFPx3 (3A) or surE::eGFPx3 (3B) in the absence of any metabolites. The expression has been normalized to the positive control.
In this example, the threshold amount was a 2.5 fold induction of eGFP-derived fluorescence emission. Thus, hits were considered those that gave at least a 2.5-fold induction of eGFP-derived fluorescence emission. However, in other embodiments, hits may be those giving at least a 2 fold induction, more preferably at least a 3 fold induction, and more preferably at least a 4 fold induction.
Seed cultures for the reporter strains sur::eGFPx3, attB::Psur-eGFPx3, negative control wild-type, and positive control attB::PermE-eGFPx3 inoculated by transferring fresh spores (˜10^7) into 20 mL of YEME medium (per L: 3% (w/v) yeast extract, 5% peptone, 3% malt extract, 1% glucose and 10.7% sucrose, and 5 mM MgCl2.6H2O) in a 125 mL Erlenmeyer flask equipped with stain-less steel springs. The cultures were grown at 30° C. and 250 rpm for 3 days. Mycelia from each of the four cultures were collected by centrifugation (10 min, 3000 g, RT) and diluted into 150 mL of R4 medium to give a final concentration of 0.05% (w/v). R4 medium consisted of (per L) 0.5% (w/v) glucose, 0.1% yeast extract, 0.5% MgCl2.6H2O, 0.2% CaCl2.2H2O, 0.15% proline, 0.118% valine, 0.28% TES, 50 mg/L casamino acid, 100 mg/L K2SO4, and 1× trace element solution, which contains 40 mg/L ZnCl2, 200 mg/L FeCl3.6H2O, 10 mg/L CuCl2.2H2O, 10 mg/L MnCl2.4H2O, 10 mg/L Na2B4O7.10H2O, and 10 mg/L (NH4)6Mo7O24.4H2O).
Subsequently, the two reporter strains (sur::eGFPx3 and attB::Psur-eGFPx3) were each dispensed into 5× sterile, clear-bottom 96-well plates (150 μL per well) using a MultiFlo Microplate Dispenser (BioTek). A separate sterile 96-well separate plate was prepared for positive and negative controls; it contained the negative control (wt S. albus J1074) in columns 1-3, sur::eGFPx3 in columns 4-6, attB::Psur-eGFPx3 in columns 7-9, and the positive control attB::PermE-eGFPx3 in columns 10-12 of the plate. No elicitors were added to the control plates. […] Upon additional of the compound library, t=0 fluorescence reads were recorded on a Synergy H1MF plate reader (BioTek) using Aex=485 nm and Aem=505-650 nm in 5 nm steps. […]

In the case of `CC1(C)CCC2=C(O1)c1ccccc1C(=O)C2=O` [beta-Lapachone], the “elicitor of gene cluster 4286 (ranking)” value [1] is reported as “top three elicitors”, the “elicitor of gene cluster 4477 (ranking)” value [2] is reported as “top three elicitors” and the “elicitor of gene cluster 4143 (ranking)” value [3] is reported as “top three elicitors”. For the same molecule, the “elicitor of gene cluster 2631 (ranking)” value [4] was “top three elicitors” and the “elicitor of gene cluster 2875 (ranking)” value [5] was “top two elicitors”.

`CN[C@@H]1[C@H](O)[C@H](NC)[C@H]2O[C@@]3(O)C(=O)C[C@@H](C)O[C@H]3O[C@@H]2[C@H]1O` [Spectinomycin] was tested, and the “concentration that inhibited growth” value [6] was “greater than 7.5 ug/mL”, the “upregulation of SAV3643 and SAV3665” value [7] was 40-50 fold and the “elicitor of gene cluster 3648 (ranking)” value [8] was “top four elicitors”.

In the case of `COc1cc([C@@H]2c3cc4c(cc3[C@@H](O[C@@H]3O[C@@H]5CO[C@@H](C)O[C@H]5[C@H](O)[C@H]3O)[C@H]3COC(=O)[C@H]23)OCO4)cc(OC)c1O` [etoposide], the “upregulation of surC” value ([9]; at the optimal elicitor concentration, vs DMSO) is reported as ~10 fold, the “final concentration yielding optimal upregulation of sur” value ([9]; dose-response, RT-qPCR) is reported as ~23 µM and the “induction of surA and surC” value ([9]; mRNA vs DMSO control, wt S. albus) is reported as 3 fold. For the same molecule, the “anti-bacterial effect on S. albus” value [10] was “had anti-bacterial effects on S. albus” and the “induction of the sur cluster in both reporter strains (hit ranking)” value [11] was “best hits”.
